# Literature values, collected in patent US8324220B2 (priority 2003, dated 2012).
# Columns and labels:
# [1] = test system: neuropathic pain; conditions: human, in vivo
# [2] = molecular target: NaV1.1 (Homo sapiens, UniProt P35498); conditions: read-out: TTX IC50
# [3] = molecular target: NaV1.9 (Homo sapiens, UniProt Q9UI33)
# [4] = molecular target: NaV1.5 (Homo sapiens, UniProt Q14524)
# [5] = molecular target: NaV1.3 (Homo sapiens, UniProt Q9NY46); conditions: read-out: TTX IC50
# [6] = molecular target: NaV1.8 (Homo sapiens, UniProt Q9Y5Y9)
# NaV1.8, sequence (Q9Y5Y9 whole entry, looked up): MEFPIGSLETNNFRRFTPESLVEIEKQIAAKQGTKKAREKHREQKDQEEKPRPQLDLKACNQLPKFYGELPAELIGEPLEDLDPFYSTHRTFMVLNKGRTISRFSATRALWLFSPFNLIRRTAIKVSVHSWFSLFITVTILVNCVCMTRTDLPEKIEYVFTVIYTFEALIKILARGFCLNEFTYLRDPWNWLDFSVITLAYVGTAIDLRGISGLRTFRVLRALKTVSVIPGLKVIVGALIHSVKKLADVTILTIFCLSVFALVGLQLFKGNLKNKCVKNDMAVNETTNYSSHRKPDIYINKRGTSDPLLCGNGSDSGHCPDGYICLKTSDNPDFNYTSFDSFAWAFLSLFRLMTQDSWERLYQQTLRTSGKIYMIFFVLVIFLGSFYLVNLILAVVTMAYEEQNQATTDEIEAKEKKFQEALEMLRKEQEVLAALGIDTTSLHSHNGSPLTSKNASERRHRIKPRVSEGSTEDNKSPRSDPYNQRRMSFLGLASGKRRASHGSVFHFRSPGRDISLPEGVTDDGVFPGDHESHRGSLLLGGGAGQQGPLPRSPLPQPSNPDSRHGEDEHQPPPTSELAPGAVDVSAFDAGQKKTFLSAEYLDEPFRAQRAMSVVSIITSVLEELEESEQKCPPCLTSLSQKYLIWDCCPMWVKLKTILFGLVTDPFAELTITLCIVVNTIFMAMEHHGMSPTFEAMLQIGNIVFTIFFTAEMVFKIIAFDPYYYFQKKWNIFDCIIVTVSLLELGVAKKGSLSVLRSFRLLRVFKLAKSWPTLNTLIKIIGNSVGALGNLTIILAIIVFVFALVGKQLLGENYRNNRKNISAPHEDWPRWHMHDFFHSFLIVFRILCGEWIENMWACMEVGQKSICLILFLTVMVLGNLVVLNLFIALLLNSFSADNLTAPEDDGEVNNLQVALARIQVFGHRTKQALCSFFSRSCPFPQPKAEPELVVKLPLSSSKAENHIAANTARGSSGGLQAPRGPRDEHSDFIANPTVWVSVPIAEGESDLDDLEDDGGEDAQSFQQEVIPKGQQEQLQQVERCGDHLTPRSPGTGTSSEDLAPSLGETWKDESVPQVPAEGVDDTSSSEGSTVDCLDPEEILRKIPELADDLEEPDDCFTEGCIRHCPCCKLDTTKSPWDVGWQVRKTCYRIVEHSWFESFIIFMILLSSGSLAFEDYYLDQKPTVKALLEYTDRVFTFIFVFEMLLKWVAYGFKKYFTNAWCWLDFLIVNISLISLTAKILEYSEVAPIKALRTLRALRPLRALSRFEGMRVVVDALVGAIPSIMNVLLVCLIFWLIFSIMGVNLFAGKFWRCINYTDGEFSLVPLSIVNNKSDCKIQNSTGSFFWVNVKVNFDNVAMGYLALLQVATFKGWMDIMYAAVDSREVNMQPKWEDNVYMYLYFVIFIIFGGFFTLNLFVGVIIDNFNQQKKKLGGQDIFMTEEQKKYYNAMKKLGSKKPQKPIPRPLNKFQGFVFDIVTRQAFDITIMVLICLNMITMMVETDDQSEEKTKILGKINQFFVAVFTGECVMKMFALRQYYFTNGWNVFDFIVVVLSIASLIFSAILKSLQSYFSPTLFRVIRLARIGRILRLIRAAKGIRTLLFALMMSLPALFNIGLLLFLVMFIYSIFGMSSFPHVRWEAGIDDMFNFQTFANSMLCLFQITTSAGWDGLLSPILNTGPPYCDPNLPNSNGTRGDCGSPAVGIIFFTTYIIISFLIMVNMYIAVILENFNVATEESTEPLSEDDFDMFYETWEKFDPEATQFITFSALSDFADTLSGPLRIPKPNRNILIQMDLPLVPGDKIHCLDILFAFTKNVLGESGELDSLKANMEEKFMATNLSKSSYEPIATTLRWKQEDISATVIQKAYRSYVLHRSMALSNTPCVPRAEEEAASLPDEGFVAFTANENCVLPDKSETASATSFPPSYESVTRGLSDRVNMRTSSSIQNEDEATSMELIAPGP
# [7] = molecular target: NaV1.6 (Homo sapiens, UniProt Q9UQD0); conditions: read-out: TTX IC50
# [8] = molecular target: NaV1.2 (Homo sapiens, UniProt Q99250); conditions: read-out: TTX IC50
# NaV1.9, sequence (Q9UI33 whole entry, looked up): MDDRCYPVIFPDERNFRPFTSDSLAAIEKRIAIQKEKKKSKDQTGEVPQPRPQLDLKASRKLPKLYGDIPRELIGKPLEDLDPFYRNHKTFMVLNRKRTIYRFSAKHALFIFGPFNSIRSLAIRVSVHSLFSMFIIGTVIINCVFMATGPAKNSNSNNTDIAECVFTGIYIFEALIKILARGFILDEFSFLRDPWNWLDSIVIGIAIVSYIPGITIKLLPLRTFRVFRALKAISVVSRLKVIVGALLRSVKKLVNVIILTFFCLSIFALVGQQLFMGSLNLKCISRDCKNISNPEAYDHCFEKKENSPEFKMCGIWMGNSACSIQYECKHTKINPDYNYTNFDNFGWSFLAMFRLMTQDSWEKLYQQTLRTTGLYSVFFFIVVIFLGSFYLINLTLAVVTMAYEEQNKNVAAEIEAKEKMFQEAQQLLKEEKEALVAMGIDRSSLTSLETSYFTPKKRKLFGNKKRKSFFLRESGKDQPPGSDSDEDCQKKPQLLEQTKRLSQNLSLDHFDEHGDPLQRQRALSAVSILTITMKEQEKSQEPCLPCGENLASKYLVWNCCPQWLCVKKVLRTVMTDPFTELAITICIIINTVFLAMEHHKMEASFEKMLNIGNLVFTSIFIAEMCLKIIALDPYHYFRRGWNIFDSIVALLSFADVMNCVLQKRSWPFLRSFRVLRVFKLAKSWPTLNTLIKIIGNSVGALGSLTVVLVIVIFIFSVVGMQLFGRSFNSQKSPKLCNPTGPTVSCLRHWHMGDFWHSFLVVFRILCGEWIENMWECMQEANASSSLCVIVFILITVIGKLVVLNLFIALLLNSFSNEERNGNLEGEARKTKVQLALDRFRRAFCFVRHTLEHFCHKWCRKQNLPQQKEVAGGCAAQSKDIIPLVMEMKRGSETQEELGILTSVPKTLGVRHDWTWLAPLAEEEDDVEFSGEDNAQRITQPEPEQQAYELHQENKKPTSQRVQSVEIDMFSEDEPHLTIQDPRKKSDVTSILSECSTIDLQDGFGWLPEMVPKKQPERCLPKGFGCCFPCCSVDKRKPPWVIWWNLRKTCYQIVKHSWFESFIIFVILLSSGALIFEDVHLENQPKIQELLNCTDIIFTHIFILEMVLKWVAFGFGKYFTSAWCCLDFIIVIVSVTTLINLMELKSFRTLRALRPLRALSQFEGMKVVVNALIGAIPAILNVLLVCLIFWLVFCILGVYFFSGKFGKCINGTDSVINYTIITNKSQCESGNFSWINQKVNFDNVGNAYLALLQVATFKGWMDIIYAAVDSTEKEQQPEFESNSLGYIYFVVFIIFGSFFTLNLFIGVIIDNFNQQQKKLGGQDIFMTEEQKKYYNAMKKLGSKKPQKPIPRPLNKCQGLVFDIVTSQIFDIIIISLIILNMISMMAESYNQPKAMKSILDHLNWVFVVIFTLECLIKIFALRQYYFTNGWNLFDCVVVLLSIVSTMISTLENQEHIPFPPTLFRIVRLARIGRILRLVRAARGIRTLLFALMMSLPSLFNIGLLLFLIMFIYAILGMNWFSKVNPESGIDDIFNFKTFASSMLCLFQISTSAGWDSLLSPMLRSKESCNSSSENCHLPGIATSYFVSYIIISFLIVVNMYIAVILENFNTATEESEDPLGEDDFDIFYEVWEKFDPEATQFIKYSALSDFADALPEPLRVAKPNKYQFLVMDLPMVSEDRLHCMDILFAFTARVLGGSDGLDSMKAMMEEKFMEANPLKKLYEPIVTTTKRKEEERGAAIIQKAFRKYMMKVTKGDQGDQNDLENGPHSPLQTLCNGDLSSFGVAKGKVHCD
SMILES,share of patients in which the drug works [1] [%],IC50 [2] [µM],block by TTX [3],IC50 ([3]; read-out: TTX IC50) [µM],block by TTX [4],IC50 [5] [µM],block by TTX [6],IC50 ([6]; read-out: TTX IC50) [µM],IC50 [7] [µM],IC50 [8] [µM]
NCC1(CC(=O)O)CCCCC1 [Gabapentin],60,–,–,–,–,–,–,–,–,–
"NC1=N[C@H](O)[C@H]2[C@H]3O[C@]4(O)O[C@@H]([C@@H](O)[C@@]2(N1)[C@@H]4O)[C@]3(O)CO [TTX, tetrodotoxin]",–,0.01,resistant to block,1,resistant to block,0.015,resistant to block,> 50,0.006,0.01
